Experiment [1] deals with CAL-39 (Other Solid Carcinomas). The experiment can be described thus: Bliss excess, mean over the matrix (fraction); higher = more synergy. In outline: (§1)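 Cell lines in DMEM/F12 or RPMI with 10% FBS were plated in 1536-well plates, held 24 hours at 37°C, 5% CO2, then given two-drug dose matrices for 72 hours (DMSO typically 0.2%). Viability was read by CellTiter-Glo 2.0 luminescence and scaled as inhibition from 0 (vehicle wells) to 1 (blank wells). Combination Emax is the second-highest inhibition in the matrix; Bliss excess is observed combination effect minus expected EA + EB − EA·EB, EA and EB being single-agent effects.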

Experiment [2] deals with CS1 (Chondrosarcoma). Described as above. In short, it runs like this:
as §1

For another experiment, the system named is D-392MG (Glioblastoma). The description is as above. In outline:
as §1

The subject of experiment [3] is FU-OV-1 (Ovarian Carcinoma). The experiment is described as above. In outline:
as §1

Experiment [4] deals with HCT-116 (Colorectal Carcinoma). The experiment is described as above. In short, it runs like this: as §1
The subject of experiment [5] is MSTO-211H (Mesothelioma). Described as above. In outline:
as §1

Experiment [6] relates to NOMO-1 (Acute Myeloid Leukemia). Described as above. In short, it runs like this:
as §1

Experiment [7] concerns P31-FUJ (Acute Myeloid Leukemia). The experiment is described as above. In short, it runs like this: as §1
The next experiment relates to SK-MEL-1 (Melanoma). The description is as above. In short, it runs like this:
as §1

For experiment [8], the system named is SNG-M (Endometrial Carcinoma). The description is as above. In outline:
as §1

Experiment [9] relates to SW48 (Colorectal Carcinoma). The experiment is described as above. In short, it runs like this: as §1
In experiment [10] the test system is SW948 (Colorectal Carcinoma). The experiment is described as above. In outline:
as §1

For experiment [11], the system named is WSU-DLCL2 (B-Cell Non-Hodgkin's Lymphoma). Described as above. In short, it runs like this: as §1
Experiment [12] relates to CAL-39 (Other Solid Carcinomas). The experiment can be described thus: combination Emax (second highest fraction inhibited in the dose matrix, 72 h); higher = more inhibition; extreme values may be limits of the assay. In outline: as §1
For experiment [13], the system named is CS1 (Chondrosarcoma). The experiment is described as above. In outline:
as §1

Experiment [14] has as its system HCT-116 (Colorectal Carcinoma). The description is as above. In short, it runs like this: as §1
In experiment [15] the test system is MEG-01 (Chronic Myelogenous Leukemia). The description is as above. In short, it runs like this: as §1
Experiment [16] has as its system MSTO-211H (Mesothelioma). The experiment is described as above. In short, it runs like this: as §1
Experiment [17] relates to SW48 (Colorectal Carcinoma). The description is as above. In short, it runs like this: as §1
The test system of experiment [18] is TC-YIK (Other Solid Carcinomas). The experiment is described as above. In outline:
as §1

The structures appear in SMILES notation.
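Throughout, for Bliss excess, mean over the matrix: after 72 h of two-drug dosing.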

Take `C=CCn1c(=O)c2cnc(Nc3ccc(N4CCN(C)CC4)cc3)nc2n1-c1cccc(C(C)(C)O)n1` [AZD1775] + CCc1c2c(nc3ccc(O)cc13)-c1cc3c(c(=O)n1C2)COC(=O)[C@]3(O)CC [SN-38] (first compound max 1 µM, partner max 0.3 µM): the Bliss excess is -0.0225 in [1]; -0.0705 with CS1 (Chondrosarcoma) [2]; -0.0704 in the experiment with D-392MG (Glioblastoma); -0.102 in experiment [3]; -0.0302 in experiment [4]; -0.0619 in the experiment on MSTO-211H (Mesothelioma) [5]. Moreover, the Bliss excess in experiment [6] was -0.0208; in [7], 0.0049; with SK-MEL-1 (Melanoma), 0.0154; in [8], -0.0087; in experiment [9] it was -0.0052; in experiment [10], 0.141. Moreover, in [11], the Bliss excess turned out to be 0.003. Besides, the “combination Emax” value in [12] was 0.947; in the experiment with CS1 (Chondrosarcoma) [13], 0.786; in experiment [14], 0.866; in [15] it was 0.964; in the experiment with MSTO-211H (Mesothelioma) [16] it was 0.783; in experiment [17], 0.857. Moreover, the “combination Emax” value in experiment [18] was found to be 1.

Turning to `C=CCn1c(=O)c2cnc(Nc3ccc(N4CCN(C)CC4)cc3)nc2n1-c1cccc(C(C)(C)O)n1` [AZD1775] + Nc1ccn([C@@H]2O[C@H](CO)[C@@H](O)C2(F)F)c(=O)n1 [Gemcitabine] (first compound max 1 µM, partner max 0.3 µM), the Bliss excess in experiment [1] is 0.0328; in the experiment on CS1 (Chondrosarcoma) [2] it was -0.0007; in the experiment on D-392MG (Glioblastoma) it was 0.013; in experiment [3], -0.0741; in [4] it was -0.0342; with MSTO-211H (Mesothelioma) [5], 0.0226. The Bliss excess in experiment [6] was 0.0485; in experiment [7] it was 0.0797; with SK-MEL-1 (Melanoma), -0.0469; in experiment [8] it was -0.0314; in experiment [9] it was 0.0828; in [10], 0.104. The Bliss excess in [11] turned out to be 0.0694. The “combination Emax” value in [12] stood at 0.914; in the experiment on CS1 (Chondrosarcoma) [13], 0.661; in [14], 0.88; in [15] it was 0.918; in the experiment on MSTO-211H (Mesothelioma) [16] it was 0.815; in experiment [17], 0.887. Moreover, the “combination Emax” value in experiment [18] was determined as 0.865.

Turning to `CN(CCO)CC[C@H](CSc1ccccc1)Nc1ccc(S(=O)(=O)NC(=O)c2ccc(N3CCC([C@@H](O)c4ccccc4-c4ccc(Cl)cc4)CC3)cc2)cc1S(=O)(=O)C(F)(F)F` [AZD4320] + CC(=O)O[C@H]1C(=O)[C@@]2(C)[C@H]([C@H](OC(=O)c3ccccc3)[C@]3(O)C[C@H](OC(=O)[C@H](O)[C@@H](NC(=O)c4ccccc4)c4ccccc4)C(C)=C1C3(C)C)[C@]1(OC(C)=O)CO[C@@H]1C[C@@H]2O [Paclitaxel] (first compound max 1 µM, 7x7, partner max 3 µM), the Bliss excess was 0.0298 in [1]; 0.041 with CS1 (Chondrosarcoma) [2]; 0.129 in the experiment with D-392MG (Glioblastoma); 0.0924 in [3]; 0.0182 in experiment [4]; 0.105 in the experiment on MSTO-211H (Mesothelioma) [5]. Further, the Bliss excess in experiment [6] is -0.0101; in [7] it was -0.0004; with SK-MEL-1 (Melanoma), 0.0354; in [8] it was 0.0275; in [9], -0.003; in experiment [10] it was -0.0074. The Bliss excess in [11] was -0.0101. In addition, the “combination Emax” value in experiment [12] is 1; in the experiment on CS1 (Chondrosarcoma) [13], 0.961; in [14], 1; in experiment [15] it was 0.991; in the experiment on MSTO-211H (Mesothelioma) [16], 0.881; in experiment [17], 1. In experiment [18], the “combination Emax” value amounted to 1.

As for `CN(CCO)CC[C@H](CSc1ccccc1)Nc1ccc(S(=O)(=O)NC(=O)c2ccc(N3CCC([C@@H](O)c4ccccc4-c4ccc(Cl)cc4)CC3)cc2)cc1S(=O)(=O)C(F)(F)F` [AZD4320] + CS(=O)(=O)CCNCc1ccc(-c2ccc3ncnc(Nc4ccc(OCc5cccc(F)c5)c(Cl)c4)c3c2)o1 [Lapatinib] (first compound max 1 µM, 7x7, partner max 10 µM), the Bliss excess in experiment [1] is 0.0372; in the experiment with CS1 (Chondrosarcoma) [2] it was 0.0095; with D-392MG (Glioblastoma), -0.0269; in experiment [3], -0.0203; in experiment [4] it was 0.0085; in the experiment with MSTO-211H (Mesothelioma) [5], 0.0275. Moreover, the Bliss excess in [6] is 0.0709; in [7], 0.109; with SK-MEL-1 (Melanoma) it was -0.0444; in experiment [8], -0.0091; in [9], 0.14; in [10] it was 0.0049. Also, in experiment [11], the Bliss excess came out at 0.203. The “combination Emax” value in experiment [12] amounted to 0.97; with CS1 (Chondrosarcoma) [13], 0.937; in experiment [14], 0.796; in experiment [15] it was 0.986; with MSTO-211H (Mesothelioma) [16] it was 0.952; in [17] it was 0.969. The “combination Emax” value in experiment [18] was found to be 1.

Consider `CN(CCO)CC[C@H](CSc1ccccc1)Nc1ccc(S(=O)(=O)NC(=O)c2ccc(N3CCC([C@@H](O)c4ccccc4-c4ccc(Cl)cc4)CC3)cc2)cc1S(=O)(=O)C(F)(F)F` [AZD4320] + Nc1ccn([C@@H]2O[C@H](CO)[C@@H](O)C2(F)F)c(=O)n1 [Gemcitabine] (first compound max 1 µM, 7x7, partner max 0.3 µM), for which the Bliss excess in experiment [1] was 0.0174; with CS1 (Chondrosarcoma) [2], 0.0187; with D-392MG (Glioblastoma), 0.0921; in experiment [3], -0.0498; in [4], 0.0111; in the experiment with MSTO-211H (Mesothelioma) [5], 0.0099. For the same molecule, the Bliss excess in experiment [6] was 0.0208; in experiment [7], -0.0492; in the experiment with SK-MEL-1 (Melanoma) it was -0.0689; in [8] it was -0.0568; in experiment [9] it was 0.0089; in experiment [10], 0.0114. The Bliss excess in experiment [11] was found to be 0.0032. For the same molecule, the “combination Emax” value in [12] is 0.97; in the experiment on CS1 (Chondrosarcoma) [13], 0.789; in [14] it was 0.899; in experiment [15] it was 0.93; with MSTO-211H (Mesothelioma) [16] it was 0.96; in experiment [17], 0.972. Besides, the “combination Emax” value in experiment [18] worked out at 1.

Turning to `Cc1c2c(nn1C)CSCc1cc(n(C)n1)CSc1cc(c3ccccc3c1)OCCCc1c(C(=O)O)n(C)c3c-2c(Cl)ccc13` [AZD5991] + CC(=O)O[C@H]1C(=O)[C@@]2(C)[C@H]([C@H](OC(=O)c3ccccc3)[C@]3(O)C[C@H](OC(=O)[C@H](O)[C@@H](NC(=O)c4ccccc4)c4ccccc4)C(C)=C1C3(C)C)[C@]1(OC(C)=O)CO[C@@H]1C[C@@H]2O [Paclitaxel] (first compound max 1 µM, 7x7, partner max 3 µM), the Bliss excess in [1] is -0.0154; in the experiment on CS1 (Chondrosarcoma) [2], -0.012; in the experiment with D-392MG (Glioblastoma), 0.046; in [3] it was 0.0262; in experiment [4], -0.0211; in the experiment on MSTO-211H (Mesothelioma) [5] it was 0.0035. In addition, the Bliss excess in experiment [6] was -0.0215; in [7], -0.0253; in the experiment with SK-MEL-1 (Melanoma) it was -0.0045; in [8] it was 0.0374; in experiment [9], -0.0091; in experiment [10] it was -0.0421. Also, the Bliss excess in experiment [11] is -0.0151. The “combination Emax” value was determined as 0.994 in experiment [12]; 0.652 in the experiment with CS1 (Chondrosarcoma) [13]; 0.981 in experiment [14]; 0.881 in experiment [15]; 0.391 in the experiment on MSTO-211H (Mesothelioma) [16]; 0.994 in experiment [17]. For the same molecule, the “combination Emax” value in [18] amounted to 0.928.

Values taken from the supplement of paper PMC11061612.
